Test results from patent publication US20090137499A1, “BENZYLPHENYL GLUCOPYRANOSIDE DERIVATIVE” (priority 2006, published 2009).

target: T1, human SGLT1 (Homo sapiens, UniProt P13866); assay: Determination of SGLT1 inhibiting activity using human SGLT1 expressing cell ([14C]-α-methyl-D-glucopyranoside uptake); assay type: cell-based; details: HEK-SGLT1 cells, 1 mM [14C]-α-methyl-D-glucopyranoside, 37° C., 30 min
T1 construct: expressed in transfected cells
T1 sequence (P13866 1-664): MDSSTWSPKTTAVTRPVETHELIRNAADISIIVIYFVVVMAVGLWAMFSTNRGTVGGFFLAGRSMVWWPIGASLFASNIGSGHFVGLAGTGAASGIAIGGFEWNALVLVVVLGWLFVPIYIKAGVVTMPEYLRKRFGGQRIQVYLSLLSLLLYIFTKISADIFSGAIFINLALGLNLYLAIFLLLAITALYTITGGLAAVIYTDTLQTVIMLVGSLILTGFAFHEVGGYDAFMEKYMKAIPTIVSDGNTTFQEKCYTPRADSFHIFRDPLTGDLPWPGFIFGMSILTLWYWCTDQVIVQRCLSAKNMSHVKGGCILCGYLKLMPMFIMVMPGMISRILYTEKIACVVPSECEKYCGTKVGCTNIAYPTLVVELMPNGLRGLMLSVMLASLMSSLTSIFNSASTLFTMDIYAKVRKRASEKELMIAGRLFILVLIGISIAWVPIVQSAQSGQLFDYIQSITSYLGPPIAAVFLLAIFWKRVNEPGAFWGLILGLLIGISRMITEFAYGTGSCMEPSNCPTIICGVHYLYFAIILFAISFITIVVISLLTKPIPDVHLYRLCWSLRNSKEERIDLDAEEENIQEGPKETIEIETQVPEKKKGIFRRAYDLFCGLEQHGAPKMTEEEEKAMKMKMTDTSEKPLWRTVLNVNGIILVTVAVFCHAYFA
Method: Determination of SGLT1 Inhibiting Activity Using Human SGLT1 Expressing Cell
1) Preparation of Vector Expressing Human SGLT1 cDNA in Animal Cell
Amplification was performed by PCR using human SGLT1 cDNA clone (Origene: Clone Number, TC119918; GenBank accession number, NM 000343) as a template. The sense oligonucleotide primer for PCR was 5′-[…]-3′ (Primer 1: SEQ ID NO: 1 in the sequence listing),
and the antisense oligonucleotide primer was 5′-[…]-3′ (Primer 2: SEQ ID NO: 2 in the sequence listing).
The PCR product was subjected to agarose electrophoresis, then a target DNA fragment was recovered from a single band corresponding to 2013 bases, digested with restriction enzymes HindIII and XhoI, and introduced into the HindIII/XhoI site of vector pCMV-Script (Stratagene) to obtain SGLT1 expressing plasmid pCMV-SGLT1. A HindIII/XhoI fragment was excised from pCMV-SGLT1 and introduced into the BamHI/XhoI site of pENTR1A (Gateway, Invitrogen) to prepare pENTR-SGLT1. Retrovirus vector pLPCX (Clontech) into which Gateway Vector Conversion System Cassette A (Invitrogen) was introduced was used as the destination plasmid to prepare SGLT1 expressing retrovirus vector pLPCX-SGLT1.
2) Establishment of Human SGLT1 Expressing Cell
The retrovirus pLPCX-SGLT1 obtained in 1) was transfected into integrin αvβ3 expressing HEK-293 cells and, the cells were treated with antibiotic G418 (brand name, Geneticin: Invitrogen) and puromycin (Clontech) to obtain HEK-SGLT1 cells stably expressing the target vector having resistance. The stably expressing cells were cultured and maintained in DMEM medium containing […] G418, […] puromycin, 3 mM KGT-1075, and 10% FBS.
3) Determination of SGLT1 Inhibiting Activity
HEK-SGLT1 cells were suspended at a density of 10^6 cells/mL in DMEM medium containing […] G418, 1 mg/ml puromycin, and 10% FBS, and 100 μL was seeded in each well of a type 1 collagen-coated 96-well culture plate (Corning). On the following day, the medium was replaced with a sugar uptake buffer (10 mM HEPES [pH 7.5], 5 mM Tris-HCl [pH 7.5], 140 mM NaCl, 2 mM KCl, 1 mM CaCl2, 1 mM MgCl2), and the cells were cultured with 1 mM [^14C]-α-methyl-D-glucopyranoside (0.1 mCi) and the test compound at 37° C. for 30 min and then washed 3 times with a washing buffer (10 mM HEPES [pH 7.5], 5 mM Tris-HCl [pH 7.5], 140 mM choline chloride, 2 mM KCl, 1 mM CaCl2, 1 mM MgCl2). 100 μL of liquid scintillation cocktail (brand name, Supermix: Perkin-Elmer) was added to each well of the 96-well plate and stirred for 10 min, and then radioactivity was determined with micro β (Perkin-Elmer), a type of liquid scintillation counter. The value as the sugar uptake activity was obtained by deducting the radioactivity in the presence of an excess amount of an SGLT1 inhibiting compound as the background from each measured value, the inhibition rate (%) was calculated from the control sugar uptake activity obtained without using a test compound and the sugar uptake activity obtained using a test compound having a predetermined the concentration, and concentrations of the test compound at which the sugar uptake activity was inhibited by 50% were assessed.

Compound | IC50
COc1ccc(Cc2ccc(CO)cc2O[C@@H]2O[C@H]([C@@H](C)O)[C@@H](O)[C@H](O)[C@H]2O)cc1 [Example 9, 2-(4-Methoxybenzyl)-5-hydroxymethylphenyl 7-deoxy-D-glycero-β-D-gluco-heptopyranoside] | 54 nM
COc1ccc(Cc2cc(CO)cnc2O[C@@H]2O[C@H]([C@@H](C)O)[C@@H](O)[C@H](O)[C@H]2O)cc1 [Example 38, 3-(4-Methoxybenzyl)-5-hydroxymethylpyridin-2-yl 7-deoxy-D-glycero-β-D-gluco-heptopyranoside] | 207 nM
CCc1ccc(Cc2ccc(N)cc2O[C@@H]2O[C@H](C(C)O)[C@@](C)(O)[C@H](O)[C@H]2O)cc1 (stereo partly drawn) [Example 41, 5-Amino-2-(4-ethylbenzyl)phenyl 4-C-methyl-7-deoxy-glycero-β-D-gluco-heptapyranoside] | 87 nM
COc1ccc(Cc2c(Cl)cccc2O[C@@H]2O[C@H]([C@@H](C)O)[C@@H](O)[C@H](O)[C@H]2O)cc1 [Example 42, 3-Chloro-2-(4-methoxybenzyl)phenyl 7-deoxy-D-glycero-β-D-gluco-heptopyranoside] | 63 nM
COc1ccc(Cc2c(Cl)cc(C)cc2O[C@@H]2O[C@H]([C@@H](C)O)[C@@H](O)[C@H](O)[C@H]2O)cc1 [Example 43, 3-Chloro-5-methyl-2-(4-methoxybenzyl)phenyl 7-deoxy-D-glycero-β-D-gluco-heptopyranoside] | 212 nM
COc1ccc(Cc2c(Cl)cc(CO)cc2O[C@@H]2O[C@H]([C@@H](C)O)[C@@H](O)[C@H](O)[C@H]2O)cc1 [Example 44, 3-Chloro-5-hydroxymethyl-2-(4-methoxybenzyl)phenyl 7-deoxy-D-glycero-β-D-gluco-heptopyranoside] | 29 nM
CCOc1ccc(Cc2c(Cl)cc(CO)cc2O[C@@H]2O[C@H]([C@@H](C)O)[C@@H](O)[C@H](O)[C@H]2O)cc1 [Example 45, 3-Chloro-2-(4-ethoxybenzyl)-5-hydroxymethyl-phenyl 7-deoxy-D-glycero-β-D-gluco-heptopyranoside] | 118 nM
CCOc1ccc(Cc2c(F)cc(CO)cc2O[C@@H]2O[C@H]([C@@H](C)O)[C@@H](O)[C@H](O)[C@H]2O)cc1 [Example 46, 2-(4-Ethoxybenzyl)-3-fluoro-5-hydroxymethyl-phenyl 7-deoxy-D-glycero-β-D-gluco-heptopyranoside] | 56 nM
CCc1ccc(Cc2c(F)cc(CO)cc2O[C@@H]2O[C@H]([C@@H](C)O)[C@@H](O)[C@H](O)[C@H]2O)cc1 [Example 47, 2-(4-Ethylbenzyl)-3-fluoro-5-hydroxymethyl-phenyl 7-deoxy-D-glycero-β-D-gluco-heptopyranoside] | 66 nM
COc1ccc(Cc2c(Cl)cc(CO)cc2O[C@@H]2O[C@H]([C@H](C)O)[C@@H](O)[C@H](O)[C@H]2O)cc1 [Example 57, 3-Chloro-5-hydroxymethyl-2-(4-methoxybenzyl)phenyl 7-deoxy-L-glycero-β-D-gluco-heptopyranoside] | 217 nM
C[C@@H](O)[C@H]1O[C@@H](Oc2cc(CO)ccc2Cc2ccc(OC3CC3)cc2)[C@H](O)[C@@H](O)[C@@H]1O [Example 60, 2-(4-Cyclopropyloxybenzyl)-5-hydroxymethylphenyl 7-deoxy-D-glycero-β-D-gluco-heptopyranoside] | 81 nM
C[C@@H](O)[C@H]1O[C@@H](Oc2cc(CO)ccc2Cc2ccc(C3CC3)cc2)[C@H](O)[C@@H](O)[C@@H]1O [Example 62, 2-(4-Cyclopropylbenzyl)-5-hydroxymethylphenyl 7-deoxy-D-glycero-β-D-gluco-heptopyranoside] | 155 nM
C[C@@H](O)[C@H]1O[C@@H](Oc2cc(CO)cc(F)c2Cc2ccc(OC3CC3)cc2)[C@H](O)[C@@H](O)[C@@H]1O [Example 63, 2-(4-Cyclopropoxybenzyl)-3-fluoro-5-hydroxymethyl-phenyl 7-deoxy-D-glycero-β-D-gluco-heptopyranoside] | 68 nM

Continued, values first:

IC50 | Compound
214 nM | CSc1ccc(Cc2ccc(CO)cc2O[C@@H]2O[C@H]([C@@H](C)O)[C@@H](O)[C@H](O)[C@H]2O)cc1 [Example 66, 5-Hydroxymethyl-2-(4-methylsulfanylbenzyl)phenyl 7-deoxy-D-glycero-β-D-gluco-heptopyranoside]
491 nM | CCc1ccc(Cc2ccc(CCO)cc2O[C@@H]2O[C@H]([C@@H](C)O)[C@@H](O)[C@H](O)[C@H]2O)cc1 [Example 67, 2-(4-Ethylbenzyl)-5-(2-hydroxyethyl)phenyl 7-deoxy-D-glycero-β-D-gluco-heptopyranoside]
123 nM | C[C@@H](O)[C@H]1O[C@@H](Oc2cc(CO)ccc2Cc2ccc(CCCO)cc2)[C@H](O)[C@@H](O)[C@@H]1O [Example 68, 5-Hydroxymethyl-2-[4-(3-hydroxypropyl)benzyl]phenyl 7-deoxy-D-glycero-β-D-gluco-heptopyranoside]
231 nM | COc1ccc(Cc2c(C)cc(C)cc2O[C@@H]2O[C@H]([C@@H](C)O)[C@@H](O)[C@H](O)[C@H]2O)cc1F [Example 69, 2-(3-Fluoro-4-methoxybenzyl)-3,5-dimethylphenyl 7-deoxy-D-glycero-β-D-gluco-heptopyranoside]
199 nM | Cc1cc(C)c(Cc2ccc(CCO)cc2)c(O[C@@H]2O[C@H]([C@@H](C)O)[C@@H](O)[C@H](O)[C@H]2O)c1 [Example 70, 2-[4-(2-Hydroxyethyl)benzyl]-3,5-dimethylphenyl 7-deoxy-D-glycero-β-D-gluco-heptopyranoside]
281 nM | CCCOc1ccc(Cc2c(F)cc(CO)cc2O[C@@H]2O[C@H]([C@@H](C)O)[C@@H](O)[C@H](O)[C@H]2O)cc1 [Example 74, 3-Fluoro-5-hydroxymethyl-2-(4-propoxybenzyl)phenyl 7-deoxy-D-glycero-β-D-gluco-heptopyranoside]
269 nM | CC(C)Oc1ccc(Cc2c(F)cc(CO)cc2O[C@@H]2O[C@H]([C@@H](C)O)[C@@H](O)[C@H](O)[C@H]2O)cc1 [Example 75, 3-Fluoro-5-hydroxymethyl-2-(4-isopropoxybenzyl)phenyl 7-deoxy-D-glycero-β-D-gluco-heptopyranoside]
252 nM | COc1ccc(Cc2c(C)cc(C)cc2O[C@@H]2O[C@H]([C@@H](C)O)[C@@H](O)[C@H](O)[C@H]2O)cc1 [Example 77, 3,5-Dimethyl-2-(4-methoxybenzyl)phenyl 7-deoxy-D-glycero-β-D-gluco-heptopyranoside]
234 nM | COc1ccc(Cc2ccc(CO)cc2O[C@@H]2O[C@H]([C@@H](C)O)[C@@H](O)[C@H](O)[C@H]2O)cc1F [Example 78, 2-(3-Fluoro-4-methoxybenzyl)-5-hydroxymethylphenyl 7-deoxy-D-glycero-β-D-gluco-heptopyranoside]
219 nM | COc1ccc(Cc2ccc(CO)cc2O[C@@H]2O[C@H]([C@@H](C)O)[C@@H](O)[C@H](O)[C@H]2O)c(F)c1 [Example 82, 2-(2-Fluoro-4-methoxybenzyl)-5-hydroxymethylphenyl 7-deoxy-D-glycero-β-D-gluco-heptopyranoside]
